Reference: article PMC8159961, “Exploring protein hotspots by optimized fragment pharmacophores” (Nature Communications, 2021)
pKi: −log10 of the molar value. “And” between values parts separate entries of the source, which are not always exact repeats. Equal entries are not always repeated. Where two headings read alike, the source gives them in different places.

How the values were obtained:
bovine factor Xa = target: T1, bovine factor Xa (Bos taurus, UniProt P00743); test: Protease inhibitory assay, chromogenic substrate S-2222; assay type: biochemical; conditions: for V0 / Vi / vinit: FactorXa primary screening, substrate 100 µM, cmpd conc 200 µM; for vinit: replicate values
T1 construct: bovine factor Xa, Chromogenix, 2 nkat/mL; purchased Chromogenix
T1 sequence (P00743 234-492 limits assumed): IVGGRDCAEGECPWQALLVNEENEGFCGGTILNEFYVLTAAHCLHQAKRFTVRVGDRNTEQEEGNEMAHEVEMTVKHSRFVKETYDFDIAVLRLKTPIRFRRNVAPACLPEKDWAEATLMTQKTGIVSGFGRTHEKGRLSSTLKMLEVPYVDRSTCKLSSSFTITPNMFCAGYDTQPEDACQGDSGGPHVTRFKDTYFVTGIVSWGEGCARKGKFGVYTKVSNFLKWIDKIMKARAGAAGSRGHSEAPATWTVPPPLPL
T1 sequence (P00743 41-180 partner limits assumed): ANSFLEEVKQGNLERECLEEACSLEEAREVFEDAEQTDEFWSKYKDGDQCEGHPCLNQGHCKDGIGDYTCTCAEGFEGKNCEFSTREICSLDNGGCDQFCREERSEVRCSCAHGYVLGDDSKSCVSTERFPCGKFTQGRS

human thrombin = target: T2, human thrombin (Homo sapiens, UniProt P00734); test: Protease inhibitory assay, chromogenic substrate S-2238; assay type: biochemical; conditions: for V0 / Vi / vinit: Thrombin primary screening, substrate 40 µM, cmpd conc 500 µM; for vinit: replicate values; for pKi: plate layout, label = plate position, Cheng-Prusoff, Km 2.6 µM, read-out: Thrombin Ki
T2 construct: human thrombin; purchased Sigma-Aldrich

human 5-HT7b receptor = target: T3, human 5-HT7b receptor (Homo sapiens, UniProt P34969); test: GPCR radioligand binding assay, [3H]-5-CT displacement, HEK293 membranes
T3 construct: expressed in transfected cells
T3 sequence (P34969 1-432): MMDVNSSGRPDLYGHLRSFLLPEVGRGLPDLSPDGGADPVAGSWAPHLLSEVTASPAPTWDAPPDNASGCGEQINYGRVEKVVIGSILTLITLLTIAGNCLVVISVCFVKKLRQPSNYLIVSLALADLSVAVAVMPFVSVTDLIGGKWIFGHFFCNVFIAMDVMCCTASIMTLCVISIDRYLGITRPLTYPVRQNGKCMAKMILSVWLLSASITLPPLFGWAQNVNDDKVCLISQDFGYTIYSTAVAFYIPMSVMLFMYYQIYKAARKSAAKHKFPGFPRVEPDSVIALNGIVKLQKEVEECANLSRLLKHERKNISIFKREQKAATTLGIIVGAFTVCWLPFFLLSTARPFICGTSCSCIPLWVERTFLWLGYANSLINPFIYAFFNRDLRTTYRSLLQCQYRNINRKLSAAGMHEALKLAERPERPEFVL

human 5-HT1A receptor = target: T4, human 5-HT1A receptor (Homo sapiens, UniProt P08908); test: GPCR radioligand binding assay, [3H]-8-OH-DPAT displacement, HEK293 membranes
T4 construct: expressed in transfected cells
T4 sequence (P08908 1-422): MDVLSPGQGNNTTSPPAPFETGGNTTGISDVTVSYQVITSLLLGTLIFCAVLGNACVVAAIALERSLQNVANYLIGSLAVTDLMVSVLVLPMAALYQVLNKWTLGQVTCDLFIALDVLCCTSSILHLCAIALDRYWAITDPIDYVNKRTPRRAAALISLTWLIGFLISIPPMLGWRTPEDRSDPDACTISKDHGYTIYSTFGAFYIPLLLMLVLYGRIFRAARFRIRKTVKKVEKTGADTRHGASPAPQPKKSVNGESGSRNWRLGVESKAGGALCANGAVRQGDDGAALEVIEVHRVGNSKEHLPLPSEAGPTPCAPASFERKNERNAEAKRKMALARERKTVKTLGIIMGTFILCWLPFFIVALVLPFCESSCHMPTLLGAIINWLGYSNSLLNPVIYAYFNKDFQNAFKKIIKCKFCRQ

human 5-HT6 receptor = target: T5, human 5-HT6 receptor (Homo sapiens, UniProt P50406); test: GPCR radioligand binding assay, [3H]-LSD displacement, HEK293 membranes
T5 construct: expressed in transfected cells
T5 sequence (P50406 whole entry): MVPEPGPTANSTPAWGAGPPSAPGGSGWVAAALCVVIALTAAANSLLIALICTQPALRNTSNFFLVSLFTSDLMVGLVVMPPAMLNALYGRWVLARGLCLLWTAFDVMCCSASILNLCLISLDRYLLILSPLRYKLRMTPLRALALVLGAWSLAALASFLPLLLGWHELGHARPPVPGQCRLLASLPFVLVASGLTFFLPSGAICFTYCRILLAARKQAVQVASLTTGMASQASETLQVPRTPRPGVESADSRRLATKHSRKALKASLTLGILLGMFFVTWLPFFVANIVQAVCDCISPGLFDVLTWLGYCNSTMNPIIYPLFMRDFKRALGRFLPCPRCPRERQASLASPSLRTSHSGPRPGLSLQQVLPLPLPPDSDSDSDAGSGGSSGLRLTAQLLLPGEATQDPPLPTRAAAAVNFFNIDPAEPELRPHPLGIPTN

[1] = 10 µM, read-out: 5-HT7 % Inhibition by plate position
[2] = 5-HT7, average of exp_1 and exp_2, read-out: %inh 5-HT7 average
[3] = 5-HT7, average, values below 0 and above 100% were set as 0 and 100, read-out: %inh 5-HT7 corrected*
[4] = 5-HT7, replicate exp_1, read-out: %inh 5-HT7 exp_1
[5] = 5-HT7, replicate exp_2, read-out: %inh 5-HT7 exp_2
[6] = 10 µM, read-out: 5-HT1A % Inhibition by plate position
[7] = 5-HT1A, average of exp_1 and exp_2, read-out: %inh 5-HT1A average
[8] = 5-HT1A, average, values below 0 and above 100% were set as 0 and 100, read-out: %inh 5-HT1A corrected*
[9] = 5-HT1A, replicate exp_1, read-out: %inh 5-HT1A exp_1
[10] = 5-HT1A, replicate exp_2, read-out: %inh 5-HT1A exp_2
[11] = 10 µM, read-out: 5-HT6 % Inhibition by plate position
[12] = 5-HT6, average of exp_1 and exp_2, read-out: %inh 5-HT6 average
[13] = 5-HT6, average, values below 0 and above 100% were set as 0 and 100, read-out: %inh 5-HT6 corrected*
[14] = 5-HT6, replicate exp_1, read-out: %inh 5-HT6 exp_1
[15] = 5-HT6, replicate exp_2, read-out: %inh 5-HT6 exp_2
[16] = plate layout, label = plate position, Cheng-Prusoff, Km 164 µM, read-out: Factor Xa Ki

Row | Compound | V0 / Vi (bovine factor Xa) | vinit (bovine factor Xa) | V0 / Vi (human thrombin) | vinit (human thrombin) | inhibition at 10 µM (human 5-HT7b receptor; [1]) [%] | inhibition at 10 µM (human 5-HT7b receptor; [2]) [%] | inhibition at 10 µM (human 5-HT7b receptor; [3]) [%] | inhibition at 10 µM (human 5-HT7b receptor; [4]) [%] | inhibition at 10 µM (human 5-HT7b receptor; [5]) [%] | inhibition at 10 µM (human 5-HT1A receptor; [6]) [%] | inhibition at 10 µM (human 5-HT1A receptor; [7]) [%] | inhibition at 10 µM (human 5-HT1A receptor; [8]) [%] | inhibition at 10 µM (human 5-HT1A receptor; [9]) [%] | inhibition at 10 µM (human 5-HT1A receptor; [10]) [%] | inhibition at 10 µM (human 5-HT6 receptor; [11]) [%] | inhibition at 10 µM (human 5-HT6 receptor; [12]) [%] | inhibition at 10 µM (human 5-HT6 receptor; [13]) [%] | inhibition at 10 µM (human 5-HT6 receptor; [14]) [%] | inhibition at 10 µM (human 5-HT6 receptor; [15]) [%] | other results
1 | Oc1ccc(C2CCNCC2)cc1 [SX-E11] | 0.73 | 18.742 and 20.658 | 1.00 | 31.345 and 31.818 |  |  |  |  |  |  |  |  |  |  |  |  |  |  |  | 
2 | O=C(CN1CCNCC1)c1ccccc1 [SX-E5] | 0.97 | 18.286 and 17.357 | 1.06 | 28.618 and 27.418 |  |  |  |  |  |  |  |  |  |  |  |  |  |  |  | 
3 | Fc1ccc2c(C3CCNCC3)c[nH]c2c1 [SX-H4] | 0.92 | 18 and 18.9 | 0.95 | 34.909 and 34.764 |  |  |  |  |  |  |  |  |  |  |  |  |  |  |  | 
4 | CC(CN)N1CCc2sccc2C1 (stereo not shown) [SX-F9] | 0.97 | 18.364 and 18.582 | 1.01 | 34.291 and 27.273 |  |  |  |  |  |  |  |  |  |  |  |  |  |  |  | 
5 | COc1ccccc1CC1CCNCC1 [B12] |  |  |  |  |  |  |  |  |  |  |  |  |  |  |  |  |  |  |  | inhibition at 10 µM (human 5-HT7b receptor; read-out: 5-HT7 % Inhibition by plate position): 54%; inhibition at 10 µM (human 5-HT7b receptor; read-out: %inh 5-HT7 average): 54%; inhibition at 10 µM (human 5-HT7b receptor; read-out: %inh 5-HT7 corrected*): 54%; inhibition at 10 µM (human 5-HT7b receptor; read-out: %inh 5-HT7 exp_1): 45%; inhibition at 10 µM (human 5-HT7b receptor; read-out: %inh 5-HT7 exp_2): 63%; pKi (bovine factor Xa): 3.40; inhibition at 10 µM (human 5-HT1A receptor; read-out: 5-HT1A % Inhibition by plate position): 50%; inhibition at 10 µM (human 5-HT1A receptor; read-out: %inh 5-HT1A average): 50%; inhibition at 10 µM (human 5-HT1A receptor; read-out: %inh 5-HT1A corrected*): 50%; inhibition at 10 µM (human 5-HT1A receptor; read-out: %inh 5-HT1A exp_1): 52%; inhibition at 10 µM (human 5-HT1A receptor; read-out: %inh 5-HT1A exp_2): 48%; inhibition at 10 µM (human 5-HT6 receptor; read-out: 5-HT6 % Inhibition by plate position): 76%; inhibition at 10 µM (human 5-HT6 receptor; read-out: %inh 5-HT6 average): 76%; inhibition at 10 µM (human 5-HT6 receptor; read-out: %inh 5-HT6 corrected*): 76%; inhibition at 10 µM (human 5-HT6 receptor; read-out: %inh 5-HT6 exp_1): 84%; inhibition at 10 µM (human 5-HT6 receptor; read-out: %inh 5-HT6 exp_2): 68%
6 | O=C(O)c1cnc(-c2ccccc2)s1 [F3] |  |  |  |  | 0 | -18 | 0 | -6 | -31 | 2.52 | 2.52 | 2.52 | -2.47 | 7.5 | 41 | 41 | 41 | 48 | 34 | pKi (human thrombin): 3.57
7 | Oc1ccccc1N1CCCCC1 [A12] |  |  |  |  | 0 | -0.0781 | 0 | -4.73 | 4.58 | 0 | -10 | 0 | 3.37 | -23 | 55 | 55 | 55 | 69 | 42 | pKi (bovine factor Xa; [16]): 3.21
8 | O=C(c1ccccc1F)N1CCNCC1 [E12] |  |  |  |  | 0 | -6 | 0 | -4.53 | -8 | 15 | 15 | 15 | 13 | 17 | 17 | 17 | 17 | 12 | 22 | pKi (bovine factor Xa): 3.29
9 | O=C1NC(=O)/C(=C\c2cccs2)N1 [H12] |  |  |  |  | 3.77 | 3.77 | 3.77 | 6 | 1.68 | 3.44 | 3.44 | 3.44 | 7 | -0.195 | 32 | 32 | 32 | 31 | 32 | pKi (bovine factor Xa): 3.33
10 | Nc1nnc(-c2cccs2)[nH]1 [D3] |  |  |  |  | 0 | -1.67 | 0 | 1.55 | -5 | 0.863 | 0.863 | 0.863 | 1.73 | 0 | 52 | 52 | 52 | 52 | 53 | pKi (human thrombin): 3.74
11 | Cn1c(N)nc2ccccc21 [A6] |  |  |  |  | 0 | -10 | 0 | -3 | -18 | 0 | -7 | 0 | -18 | 3 | 25 | 25 | 25 | 22 | 29 | pKi (bovine factor Xa; [16]): 3.56
12 | c1ccc(Nc2nncs2)cc1 [D8] |  |  |  |  | 0 | -12 | 0 | -3.33 | -21 | 0 | -2.41 | 0 | -10 | 5.56 | 1.55 | 1.55 | 1.55 | 9 | -6 | pKi (bovine factor Xa; [16]): 3.13
13 | O=C(O)C1CCN(c2ncccn2)CC1 [E9] |  |  |  |  | 0 | -8.55 | 0 | 3.77 | -21 | 3 | 3 | 3 | 11 | -4.35 | 29 | 29 | 29 | 32 | 26 | pKi (human thrombin): 4.12
